Details of series [1]: method as in PMID 30253203. Conditions: oral brigatinib, Abcb1a/1b;Abcg2-/- mice; cited from earlier work.
For series [2] the following is noted: oral, mice; cited from earlier work.
For series [3], the target named is T1, human OATP1B3 (Homo sapiens, UniProt Q9NPD5).
T1 construct: Werner Siegmund and Dr. Markus Keiser (University of Greifswald); host or cells: HEK293
T1 sequence (Q9NPD5 1-702): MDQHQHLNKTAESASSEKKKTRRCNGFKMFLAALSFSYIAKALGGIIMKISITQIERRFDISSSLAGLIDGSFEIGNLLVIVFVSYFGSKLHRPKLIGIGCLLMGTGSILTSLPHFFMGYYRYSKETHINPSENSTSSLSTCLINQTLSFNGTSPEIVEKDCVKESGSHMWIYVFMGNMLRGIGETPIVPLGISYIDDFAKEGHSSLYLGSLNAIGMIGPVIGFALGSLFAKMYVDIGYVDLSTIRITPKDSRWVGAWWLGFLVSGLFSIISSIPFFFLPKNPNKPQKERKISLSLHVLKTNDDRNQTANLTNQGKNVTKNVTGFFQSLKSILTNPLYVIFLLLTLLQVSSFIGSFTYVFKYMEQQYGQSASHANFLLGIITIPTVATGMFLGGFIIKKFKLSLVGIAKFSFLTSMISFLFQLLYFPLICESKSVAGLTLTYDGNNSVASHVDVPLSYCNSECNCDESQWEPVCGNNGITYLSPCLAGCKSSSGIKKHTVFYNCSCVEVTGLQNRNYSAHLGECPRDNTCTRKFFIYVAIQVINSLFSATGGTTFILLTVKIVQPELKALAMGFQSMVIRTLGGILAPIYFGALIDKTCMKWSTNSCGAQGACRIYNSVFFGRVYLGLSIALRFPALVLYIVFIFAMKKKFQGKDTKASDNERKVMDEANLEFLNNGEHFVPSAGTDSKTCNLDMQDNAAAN
Kind of series: Cellular uptake in OATP1B3-overexpressing HEK293 cells. Conditions: 0.2 µM, 2.5 min incubation, HEK293 OATP1B3, positive control. The series is classed as in vitro ADME. The protocol:
(§1) HEK293 cells, vector-transfected or human (h)SLCO1A2, hSLCO1B1 or hSLCO1B3 cDNA-transfected were kind gifts from Prof. Werner Siegmund and Dr. Markus Keiser (University of Greifswald, Greifswald, Germany). All the HEK293 cell lines were maintained in DMEM supplemented with 10% (v/v) FBS, 1% penicillin–streptomycin mix at 37 °C in 5% (v/v) CO2 and 500 μg/mL G418. Cells were first seeded in 12-well plates [coated with 50 mg/L poly (l-lysine) and 50 mg/L poly (l-ornithine)] at a density of 1.0 × 10^5 cells/well. For the uptake study, in order to induce the expression of OATP transporters, the cell culture medium was replaced with culture medium supplemented with 5 mM sodium butyrate 24 h before performing the uptake assay.
(§2) The uptake transport study was performed as described previously. […] The Krebs–Henseleit solution was prepared from Krebs–Henseleit-buffer modified powder and supplemented with 25 mM NaHCO3 and 2.5 mM CaCl2 adjusted to pH 6.4 with 1 M HCL. At 2.5 min, the incubation buffer was removed, and uptake was terminated by adding 1 mL of ice-cold Krebs–Henseleit buffer, followed by two times washing with 1 mL of ice-cold Krebs–Henseleit buffer. […] The cellular protein amount was determined by the Bradford method using 10 μL of the cell lysates with bovine serum albumin as a standard.

Series [4] deals with T2, human OATP1B1 (Homo sapiens, UniProt Q9Y6L6).
T2 construct: Werner Siegmund and Dr. Markus Keiser (University of Greifswald); host or cells: HEK293
T2 sequence (Q9Y6L6 1-691): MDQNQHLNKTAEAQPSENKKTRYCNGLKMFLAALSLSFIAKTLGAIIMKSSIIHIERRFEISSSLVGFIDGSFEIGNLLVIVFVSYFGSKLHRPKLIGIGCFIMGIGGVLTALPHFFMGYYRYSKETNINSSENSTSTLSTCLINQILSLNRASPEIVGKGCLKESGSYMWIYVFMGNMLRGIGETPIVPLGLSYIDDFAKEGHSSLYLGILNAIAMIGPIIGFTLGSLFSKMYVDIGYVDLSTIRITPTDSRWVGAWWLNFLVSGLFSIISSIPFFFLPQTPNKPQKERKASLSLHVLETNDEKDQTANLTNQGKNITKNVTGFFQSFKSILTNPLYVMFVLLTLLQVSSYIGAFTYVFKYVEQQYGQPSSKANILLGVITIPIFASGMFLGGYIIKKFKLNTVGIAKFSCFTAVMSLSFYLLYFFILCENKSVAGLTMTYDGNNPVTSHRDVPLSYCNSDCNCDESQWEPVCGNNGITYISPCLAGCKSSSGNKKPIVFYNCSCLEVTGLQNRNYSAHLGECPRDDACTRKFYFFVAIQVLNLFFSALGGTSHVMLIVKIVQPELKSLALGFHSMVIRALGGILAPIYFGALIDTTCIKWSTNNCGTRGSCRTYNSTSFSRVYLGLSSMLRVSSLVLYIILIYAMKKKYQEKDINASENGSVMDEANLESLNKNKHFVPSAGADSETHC
Kind of series: Cellular uptake in OATP1B1-overexpressing HEK293 cells. Conditions: 0.2 µM, 2.5 min incubation, HEK293 OATP1B1, positive control. The series is classed as in vitro ADME. On the procedure: as §1, §2

Series [5] concerns the target T3, human OATP1A2 (Homo sapiens, UniProt P46721).
T3 construct: Werner Siegmund and Dr. Markus Keiser (University of Greifswald); host or cells: HEK293
T3 sequence (P46721 1-670): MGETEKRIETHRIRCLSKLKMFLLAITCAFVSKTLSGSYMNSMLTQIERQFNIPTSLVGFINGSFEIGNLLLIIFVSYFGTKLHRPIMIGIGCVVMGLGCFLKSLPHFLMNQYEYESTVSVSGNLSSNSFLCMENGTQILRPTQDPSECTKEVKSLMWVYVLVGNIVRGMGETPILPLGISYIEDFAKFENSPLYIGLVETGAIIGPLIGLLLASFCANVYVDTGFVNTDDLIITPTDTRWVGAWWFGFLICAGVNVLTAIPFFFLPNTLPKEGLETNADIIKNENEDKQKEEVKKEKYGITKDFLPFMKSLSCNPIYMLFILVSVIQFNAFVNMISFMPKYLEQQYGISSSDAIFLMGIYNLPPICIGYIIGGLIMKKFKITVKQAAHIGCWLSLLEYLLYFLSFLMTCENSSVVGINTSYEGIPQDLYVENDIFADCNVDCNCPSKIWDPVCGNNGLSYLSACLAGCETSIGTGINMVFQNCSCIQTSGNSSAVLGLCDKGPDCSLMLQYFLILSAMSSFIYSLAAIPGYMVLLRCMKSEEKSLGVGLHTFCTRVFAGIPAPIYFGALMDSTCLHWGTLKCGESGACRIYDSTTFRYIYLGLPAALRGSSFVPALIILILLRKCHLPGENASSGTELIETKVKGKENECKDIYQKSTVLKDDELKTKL
Kind of series: Cellular uptake in OATP1A2-overexpressing HEK293 cells. The series is classed as in vitro ADME. Conditions: 0.2 µM, 2.5 min incubation, HEK293 OATP1A2, positive control. The protocol:
as §1, §2

The values below come from article PMC8617681 (Pharmaceuticals, 2021).

Entries after “also recorded” stand apart in the source; their conditions may differ.

As to `COc1cc(N2CCC(N3CCN(C)CC3)CC2)ccc1Nc1ncc(Cl)c(Nc2ccccc2P(C)(C)=O)n1` [brigatinib], the acute toxicity entry in series [1] was “severe and even lethal acute toxicity; also recorded: sometimes severe and lethal toxicity”.

As to `COc1cc2c(cc1OC)CN(CCc1ccc(NC(=O)c3cccc4c(=O)c5cccc(OC)c5[nH]c34)cc1)CC2` [elacridar], in series [2], the Tmax result is “about 4 h”. Turning to `CC(C)c1nc(N(C)S(C)(=O)=O)nc(-c2ccc(F)cc2)c1/C=C/[C@@H](O)C[C@@H](O)CC(=O)O` [Rosuvastatin], the “uptake compared to vector control cells” value in series [3], in series [4] and in series [5] was “efficiently taken up” throughout.
